US11603377B2, “MTORC1 modulators and uses thereof” (Aeovian Pharmaceuticals, Inc., priority 2020, dated 2023)

Key:
[1] = molecular target: mTORC2 (Homo sapiens (Human), UniProt P42345+P62942); assay: mTORC2 inhibition, AlphaLISA of Phospho-AKT (pAKT pS473) in PC3 cells; format: cell-based
[2] = molecular target: mTORC1 (Homo sapiens (Human), UniProt P42345+P62942); assay: mTORC1 inhibition, AlphaLISA of Phospho-p70 S6 kinase (p70S6K pT389) in PC-3 cells; format: cell-based; conditions: inhibition of p70S6K pT389 levels
[3] = molecular target: FKBP12 (Homo sapiens (Human), UniProt P62942); assay: SPR assay to determine binding affinity to FKBP12 (direct binding); conditions: immobilized biotinylated avi-FKBP12
FKBP12, sequence (P62942 whole entry): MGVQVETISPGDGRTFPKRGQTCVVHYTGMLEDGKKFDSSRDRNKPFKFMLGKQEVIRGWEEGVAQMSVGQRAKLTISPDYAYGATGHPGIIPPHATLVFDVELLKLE

[4] = molecular target: FKBP51 / FRB ternary complex (Homo sapiens (Human), UniProt P42345+Q13451); assay: SPR assay to characterize ternary complex formation with FKBP51 (FRB binding to rapalog-saturated FKBP51); conditions: FRB dilutions with 100 nM rapalog on immobilized FKBP51
Method in brief: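 SPR with biotinylated avi-FKBP51 on streptavidin chip (~200 RU); FRB (0.00011-20 μM, 3-fold series) injected with 100 nM rapalog, A-B-A mode keeping FKBP saturated with rapalog.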

[5] = molecular target: FKBP51 (Homo sapiens (Human), UniProt Q13451); assay: SPR assay to determine binding affinity to FKBP51 (direct binding); conditions: immobilized biotinylated avi-FKBP51
FKBP51, sequence (Q13451 whole entry): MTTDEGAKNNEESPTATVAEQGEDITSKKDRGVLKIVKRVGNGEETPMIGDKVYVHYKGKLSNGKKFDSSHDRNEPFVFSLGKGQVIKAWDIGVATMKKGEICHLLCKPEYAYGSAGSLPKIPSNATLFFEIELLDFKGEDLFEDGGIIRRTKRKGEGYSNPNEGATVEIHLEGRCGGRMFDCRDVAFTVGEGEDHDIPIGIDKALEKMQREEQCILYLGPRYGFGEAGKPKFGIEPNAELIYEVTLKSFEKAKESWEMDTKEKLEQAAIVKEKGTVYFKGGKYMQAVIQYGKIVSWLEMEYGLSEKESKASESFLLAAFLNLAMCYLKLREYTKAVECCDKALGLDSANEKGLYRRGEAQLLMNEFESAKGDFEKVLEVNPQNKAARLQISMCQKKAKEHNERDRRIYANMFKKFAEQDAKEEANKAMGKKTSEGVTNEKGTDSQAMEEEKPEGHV
Method in brief: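 Biotinylated avi-FKBP51 captured on streptavidin chip to about 2000 RU. Compounds injected at 0.5-1000 nM (8 points, 3-fold) for 120 s contact and 3600 s dissociation in 50 mM HEPES pH 7.5, 150 mM NaCl, 2 mM MgCl2, 1 mM DTT, 0.05% Tween-20, 1% DMSO.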

[6] = molecular target: FKBP12 / FRB ternary complex (Homo sapiens (Human), UniProt P42345+P62942); assay: SPR assay to characterize ternary complex formation with FKBP12 (FRB binding to rapalog-saturated FKBP12); conditions: FRB dilutions with 100 nM rapalog on immobilized FKBP12
Method in brief: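 Biotinylated avi-FKBP12 immobilized (~100 RU) on streptavidin chip; A-B-A injections kept FKBP12 saturated with 100 nM rapalog while FRB (0.00011–20 μM, 3-fold, 12 points) was injected 120 s.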

SMILES	mTORC2 % inhibition at 1 uM [1]	IC50 [2]	Kd [3]	Kd [4]	Kd [5]	Kd [6]
COC1CC(CC(C)C2CC(=O)C(C)C=C(C)C(O)C(OC)C(=O)C(C)CC(C)C=CC=CC=C(C)C(NS(=O)(=O)C3CC3)CC3CCC(C)C(O)(O3)C(=O)C(=O)N3CCCCC3C(=O)O2)CCC1O (mixture of isomers) [Compound 1]	A (A ≤20% inhibition at 1 micro Molar (uM))	0.1 to 0.8 nM	> 1 nM	< 300 nM	10 to 100 nM	300 to 800 nM
COCCOCCOCCOC1CC2CCC(C)C(O)(O2)C(=O)C(=O)N2CCCCC2C(=O)OC(C(C)CC2CCC(OCCCS(C)(=O)=O)C(OC)C2)CC(=O)C(C)C=C(C)C(O)C(OC)C(=O)C(C)CC(C)C=CC=CC=C1C (mixture of isomers) [Compound 66]	A (A ≤20% inhibition at 1 micro Molar (uM))	0.1 to 0.8 nM	0.3 to 1 nM	> 800 nM	10 to 100 nM	> 800 nM
COCCOCCS(=O)(=O)NC1CC2CCC(C)C(O)(O2)C(=O)C(=O)N2CCCCC2C(=O)OC(C(C)CC2CCC(OCCO)C(OC)C2)CC(=O)C(C)C=C(C)C(O)C(OC)C(=O)C(C)CC(C)C=CC=CC=C1C (mixture of isomers) [Compound 7]	B (B>20% and less than 40% inhibition at 1 uM)	0.1 to 0.8 nM	< 0.3 nM	300 to 800 nM	10 to 100 nM	< 300 nM
COC1CC(CC(C)C2CC(=O)C(C)C=C(C)C(O)C(OC)C(=O)C(C)CC(C)C=CC=CC=C(C)C(OCC3CC3)CC3CCC(C)C(O)(O3)C(=O)C(=O)N3CCCCC3C(=O)O2)CCC1OCCCO (stereo not drawn) [Compound 42]	A (A ≤20% inhibition at 1 micro Molar (uM))	> 0.8 nM	> 1 nM	> 800 nM	> 100 nM	300 to 800 nM
COC1CC(CC(C)C2CC(=O)C(C)C=C(C)C(O)C(OC)C(=O)C(C)CC(C)C=CC=CC=C(C)C(OCCC3COC3)CC3CCC(C)C(O)(O3)C(=O)C(=O)N3CCCCC3C(=O)O2)CCC1OCCO (stereo not drawn) [Compound 38]	A (A ≤20% inhibition at 1 micro Molar (uM))	0.1 to 0.8 nM	0.3 to 1 nM	> 800 nM	10 to 100 nM	> 800 nM
CCOC(=O)COC1CCC(CC(C)C2CC(=O)C(C)C=C(C)C(O)C(OC)C(=O)C(C)CC(C)C=CC=CC=C(C)C(OC3CC3)CC3CCC(C)C(O)(O3)C(=O)C(=O)N3CCCCC3C(=O)O2)CC1OC (stereo not drawn) [Compound 48]	A (A ≤20% inhibition at 1 micro Molar (uM))	> 0.8 nM	> 1 nM	> 800 nM	> 100 nM	300 to 800 nM
COCCOC1CC2CCC(C)C(O)(O2)C(=O)C(=O)N2CCCCC2C(=O)OC(C(C)CC2CCC(OCC(=O)O)C(OC)C2)CC(=O)C(C)C=C(C)C(O)C(OC)C(=O)C(C)CC(C)C=CC=CC=C1C (stereo not drawn) [Compound 57]	B (B>20% and less than 40% inhibition at 1 uM)	> 0.8 nM	> 1 nM	> 800 nM	10 to 100 nM	300 to 800 nM
COCCOCCOC1CC2CCC(C)C(O)(O2)C(=O)C(=O)N2CCCCC2C(=O)OC(C(C)CC2CCC(OCCCS(C)(=O)=O)C(OC)C2)CC(=O)C(C)C=C(C)C(O)C(OC)C(=O)C(C)CC(C)C=CC=CC=C1C (mixture of isomers) [Compound 65]	A (A ≤20% inhibition at 1 micro Molar (uM))	0.1 to 0.8 nM	< 0.3 nM	> 800 nM	10 to 100 nM	300 to 800 nM
CCOC(=O)CS(=O)(=O)NC1C[C@H]2CC[C@H](C)[C@](O)(O2)C(=O)C(=O)N(C)C(C)C(=O)OC([C@H](C)C[C@@H]2CC[C@@H](OC3CC3)[C@H](OC)C2)CC(=O)C(C)/C=C(\C)C(O)C(OC)C(=O)C(C)CC/C=C/C=C/C=C/1C (stereo partly drawn) [Compound 12]	A (A ≤20% inhibition at 1 micro Molar (uM))	> 0.8 nM	0.3 to 1 nM	300 to 800 nM	10 to 100 nM	300 to 800 nM
COCCOCCS(=O)(=O)NC1CC2CCC(C)C(O)(O2)C(=O)C(=O)N2CCCCC2C(=O)OC(C(C)CC2CCC(OCCCO)C(OC)C2)CC(=O)C(C)C=C(C)C(O)C(OC)C(=O)C(C)CC(C)C=CC=CC=C1C (stereo not drawn) [Compound 3]	A (A ≤20% inhibition at 1 micro Molar (uM))	> 0.8 nM	0.3 to 1 nM	> 800 nM	> 100 nM	> 800 nM
COCCS(=O)(=O)NC1CC2CCC(C)C(O)(O2)C(=O)C(=O)N2CCCCC2C(=O)OC(C(C)CC2CCC(OCCCO)C(OC)C2)CC(=O)C(C)C=C(C)C(O)C(OC)C(=O)C(C)CC(C)C=CC=CC=C1C (mixture of isomers) [Compound 13]	A (A ≤20% inhibition at 1 micro Molar (uM))	0.1 to 0.8 nM	< 0.3 nM	> 800 nM	10 to 100 nM	300 to 800 nM
COCCOCCS(=O)(=O)NC1CC2CCC(C)C(O)(O2)C(=O)C(=O)N2CCCCC2C(=O)OC(C(C)CC2CCC(OCCCO)C(OC)C2)CC(=O)C(C)C=C(C)C(O)C(OC)C(=O)C(C)CC(C)C=CC=CC=C1C (stereo not drawn) [Compound 2]	A (A ≤20% inhibition at 1 micro Molar (uM))	< 0.1 nM	< 0.3 nM	300 to 800 nM	10 to 100 nM	< 300 nM
CO[C@@H]1C[C@H](C[C@@H](C)[C@@H]2CC(=O)[C@H](C)/C=C(\C)[C@@H](O)[C@@H](OC)C(=O)[C@H](C)C[C@H](C)/C=C/C=C/C=C(\C)[C@@H](OCC3CC3)C[C@@H]3CC[C@@H](C)[C@@](O)(O3)C(=O)C(=O)N3CCCC[C@H]3C(=O)O2)CC[C@H]1OCCCS(C)(=O)=O [Compound 60]	B (B>20% and less than 40% inhibition at 1 uM)	0.1 to 0.8 nM	> 1 nM	> 800 nM	> 100 nM	< 300 nM
CO[C@@H]1C[C@H](C[C@@H](C)[C@@H]2CC(=O)[C@H](C)/C=C(\C)[C@@H](O)[C@@H](OC)C(=O)[C@H](C)C[C@H](C)/C=C/C=C/C=C(\C)[C@@H](OCCC3COC3)C[C@@H]3CC[C@@H](C)[C@@](O)(O3)C(=O)C(=O)N3CCCC[C@H]3C(=O)O2)CC[C@H]1O [Compound 34]	A (A ≤20% inhibition at 1 micro Molar (uM))	> 0.8 nM	< 0.3 nM	> 800 nM	10 to 100 nM	> 800 nM
COCCS(=O)(=O)NC1CC2CCC(C)C(O)(O2)C(=O)C(=O)N2CCCCC2C(=O)OC(C(C)CC2CCC(OCCO)C(OC)C2)CC(=O)C(C)C=C(C)C(O)C(OC)C(=O)C(C)CC(C)C=CC=CC=C1C (mixture of isomers) [Compound 16]	B (B>20% and less than 40% inhibition at 1 uM)	0.1 to 0.8 nM	< 0.3 nM	> 800 nM	10 to 100 nM	300 to 800 nM
COC1C(=O)C(C)CC/C=C/C=C/C=C(\C)C(CCO)C[C@H]2CC[C@H](C)[C@](O)(O2)C(=O)C(=O)N(C)C(C)C(=O)OC([C@H](C)C[C@@H]2CC[C@@H](OCCCS(C)(=O)=O)[C@H](OC)C2)CC(=O)C(C)/C=C(\C)C1O (stereo partly drawn) [Compound 67]	B (B>20% and less than 40% inhibition at 1 uM)	0.1 to 0.8 nM	< 0.3 nM	> 800 nM	10 to 100 nM	300 to 800 nM
CCOC(=O)COC1CCC(CC(C)C2CC(=O)C(C)C=C(C)C(O)C(OC)C(=O)C(C)CC(C)C=CC=CC=C(C)C(OCC3CCC3)CC3CCC(C)C(O)(O3)C(=O)C(=O)N3CCCCC3C(=O)O2)CC1OC (stereo not drawn) [Compound 49]	B (B>20% and less than 40% inhibition at 1 uM)	> 0.8 nM	< 0.3 nM	> 800 nM	> 100 nM	300 to 800 nM
CO[C@@H]1C[C@H](C[C@@H](C)[C@@H]2CC(=O)[C@H](C)/C=C(\C)[C@@H](O)[C@@H](OC)C(=O)[C@H](C)C[C@H](C)/C=C/C=C/C=C(\C)[C@@H](NS(=O)(=O)CC3CCCCC3)C[C@@H]3CC[C@@H](C)[C@@](O)(O3)C(=O)C(=O)N3CCCC[C@H]3C(=O)O2)CC[C@H]1O [Compound 20]	B (B>20% and less than 40% inhibition at 1 uM)	0.1 to 0.8 nM	< 0.3 nM	> 800 nM	> 100 nM	300 to 800 nM
CO[C@@H]1C[C@H](C[C@@H](C)[C@@H]2CC(=O)[C@H](C)/C=C(\C)[C@@H](O)[C@@H](OC)C(=O)[C@H](C)C[C@H](C)/C=C/C=C/C=C(\C)[C@H](NS(=O)(=O)CC3CCCC3)C[C@@H]3CC[C@@H](C)[C@@](O)(O3)C(=O)C(=O)N3CCCC[C@H]3C(=O)O2)CC[C@H]1O [Compound 22]	A (A ≤20% inhibition at 1 micro Molar (uM))	0.1 to 0.8 nM	< 0.3 nM	> 800 nM	> 100 nM	> 800 nM
